# Patent publication US20260262643A1, “HERBICIDAL BENZOXAZINES” (FMC CORPORATION, priority 2022, published 2026)
# How the values were obtained:
# corn [1] = experiment: Test C preemergence; assay type: in vivo, Zea mays; conditions: for Corn plant response rating: preemergence; for Plant response rating, Corn: Preemergence
# Procedure, shortened: (§1)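 Visual injury ratings on a 0–100 scale (100 = complete control) were made against untreated controls 10 days after treatment in the greenhouse. Compounds, formulated with surfactant in non-phytotoxic solvent, were sprayed on soil preemergence or onto one- to two-leaf plants 2–10 cm tall postemergence.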
# blackgrass [2] = experiment: Test C postemergence; assay type: in vivo, Alopecurus myosuroides; conditions: 10 days
# Procedure, shortened: as §1
# soybean [3] = experiment: Test C postemergence; assay type: in vivo, Glycine max; conditions: 10 days
# Procedure, shortened: as §1
# ryegrass, Italian [4] = experiment: Test C preemergence; assay type: in vivo, Lolium multiflorum; conditions: for Ryegrass, Italian plant response rating: preemergence; for Plant response rating, Ryegrass, Italian: Preemergence
# Procedure, shortened: as §1
# rice = experiment: Test D flooded paddy test; assay type: in vivo, Oryza sativa; conditions: 250 g ai/ha, applied to paddy water, visual rating after 13 to 14 days, scale 0 to 100 (0 no effect, 100 complete control)
# Procedure, shortened: (§2)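 Compounds go straight into paddy water over 2-leaf plants in pots flooded to 3 cm. Greenhouse holding lasts 13 to 14 days. Injury is scored by eye against controls from 0 (none) to 100 (complete control).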
# pigweed, palmer [5] = experiment: Test C postemergence; assay type: in vivo, Amaranthus palmeri; conditions: 10 days
# Procedure, shortened: as §1
# sedge, umbrella = experiment: Test D flooded paddy test; assay type: in vivo, Cyperus difformis; conditions: 250 g ai/ha, applied to paddy water, visual rating after 13 to 14 days, scale 0 to 100 (0 no effect, 100 complete control)
# Procedure, shortened: as §2
# ryegrass, Italian [6] = experiment: Test C postemergence; assay type: in vivo, Lolium multiflorum; conditions: 10 days
# Procedure, shortened: as §1
# wheat [7] = experiment: Test C preemergence; assay type: in vivo, Triticum aestivum; conditions: for Wheat plant response rating: preemergence; for Plant response rating, Wheat: Preemergence
# Procedure, shortened: as §1
# green foxtail [8] = experiment: Test C postemergence; assay type: in vivo, Setaria viridis; conditions: 10 days
# Procedure, shortened: as §1
# blackgrass [9] = experiment: Test C preemergence; assay type: in vivo, Alopecurus myosuroides; conditions: for Blackgrass plant response rating: preemergence; for Plant response rating, Blackgrass: Preemergence
# Procedure, shortened: as §1
# oat, wild [10] = experiment: Test C preemergence; assay type: in vivo, Avena fatua; conditions: for Oat, Wild plant response rating: preemergence; for Plant response rating, Oat, Wild: Preemergence
# Procedure, shortened: as §1
# barnyardgrass [11] = experiment: Test C preemergence; assay type: in vivo, Echinochloa crusgalli; conditions: for Barnyardgrass plant response rating: preemergence; for Plant response rating, Barnyardgrass: Preemergence
# Procedure, shortened: as §1
# oat, wild [12] = experiment: Test C postemergence; assay type: in vivo, Avena fatua; conditions: 10 days
# Procedure, shortened: as §1
# galium = experiment: Test C postemergence; assay type: in vivo, Galium aparine; conditions: 10 days
# Procedure, shortened: as §1
# soybean [13] = experiment: Test C preemergence; assay type: in vivo, Glycine max; conditions: for Soybean plant response rating: preemergence; for Plant response rating, Soybean: Preemergence
# Procedure, shortened: as §1
# ragweed [14] = experiment: Test C preemergence; assay type: in vivo, Ambrosia artemisiifolia; conditions: for Ragweed plant response rating: preemergence; for Plant response rating, Ragweed: Preemergence
# Procedure, shortened: as §1
# kochia [15] = experiment: Test C postemergence; assay type: in vivo, Bassia scoparia; conditions: 10 days
# Procedure, shortened: as §1
# pigweed, palmer [16] = experiment: Test C preemergence; assay type: in vivo, Amaranthus palmeri; conditions: for Pigweed, Palmer plant response rating: preemergence; for Plant response rating, Pigweed, Palmer: Preemergence
# Procedure, shortened: as §1
# barnyardgrass [17] = experiment: Test C postemergence; assay type: in vivo, Echinochloa crusgalli; conditions: 10 days
# Procedure, shortened: as §1
# wheat [18] = experiment: Test C postemergence; assay type: in vivo, Triticum aestivum; conditions: 10 days
# Procedure, shortened: as §1
# corn [19] = experiment: Test C postemergence; assay type: in vivo, Zea mays; conditions: 10 days
# Procedure, shortened: as §1
# kochia [20] = experiment: Test C preemergence; assay type: in vivo, Bassia scoparia; conditions: for Kochia plant response rating: preemergence; for Plant response rating, Kochia: Preemergence
# Procedure, shortened: as §1
# horseweed = experiment: Test C postemergence; assay type: in vivo, Erigeron canadensis; conditions: 10 days
# Procedure, shortened: as §1
# barnyardgrass [21] = experiment: Test D flooded paddy test; assay type: in vivo, Echinochloa crus-galli; conditions: 250 g ai/ha, applied to paddy water, visual rating after 13 to 14 days, scale 0 to 100 (0 no effect, 100 complete control)
# Procedure, shortened: as §2
# green foxtail [22] = experiment: Test C preemergence; assay type: in vivo, Setaria viridis; conditions: for Foxtail, Green plant response rating: preemergence; for Plant response rating, Foxtail, Green: Preemergence
# Procedure, shortened: as §1
# ducksalad = experiment: Test D flooded paddy test; assay type: in vivo, Heteranthera limosa; conditions: 250 g ai/ha, applied to paddy water, visual rating after 13 to 14 days, scale 0 to 100 (0 no effect, 100 complete control)
# Procedure, shortened: as §2
# ragweed [23] = experiment: Test C postemergence; assay type: in vivo, Ambrosia artemisiifolia; conditions: 10 days
# Procedure, shortened: as §1
# [24] = 500 g ai/ha, 0 to 100 scale (0 no effect, 100 complete control)
# [25] = 125 g ai/ha, 0 to 100 scale, 0 no effect, 100 complete control
# [26] = 500 g ai/ha, postemergence, 0 to 100 scale (0 no effect, 100 complete control)
# [27] = Postemergence, 125 g ai/ha, 0 to 100 scale (0 no effect, 100 complete control)
# [28] = 500 g ai/ha, visual rating after 10 days, 0 to 100 scale (0 no effect, 100 complete control)
# [29] = Test C, 125 g ai/ha, 0 to 100 scale (0 no effect, 100 complete control)
# [30] = 125 g ai/ha, postemergence, 0 to 100 scale, 0 no effect, 100 complete control
# [31] = Postemergence, 500 g ai/ha, visual 0 to 100 scale (0 no effect, 100 complete control)
structure (smiles),measurement,setting,value
COC(C)c1ncn(-c2ccc(C)c(C(=O)N3CC(C)Oc4c(Cl)cccc43)c2)n1 (mixture of isomers) [Compound 359],Corn plant response rating,corn [1]; [24],30
same,"Plant response rating, Corn",corn [1]; [25],20
same,"Plant response rating, Blackgrass",blackgrass [2]; [26],100
same,"Plant response rating, Blackgrass",blackgrass [2]; [27],60
same,"Plant response rating, Soybean",soybean [3]; [26],100
same,"Plant response rating, Soybean",soybean [3]; [27],100
same,"Ryegrass, Italian plant response rating","ryegrass, Italian [4]; [24]",100
same,"Plant response rating, Ryegrass, Italian","ryegrass, Italian [4]; [25]",90
same,"Plant response rating, Rice (Flood)",rice,10
same,"Plant response rating, Pigweed, Palmer","pigweed, palmer [5]; [26]",100
same,"Plant response rating, Pigweed, Palmer","pigweed, palmer [5]; [27]",60
same,"Plant response rating, Sedge, Umbrella (Flood)","sedge, umbrella",65
same,"Plant response rating, Ryegrass, Italian","ryegrass, Italian [6]; [26]",100
same,"Plant response rating, Ryegrass, Italian","ryegrass, Italian [6]; [27]",90
same,Wheat plant response rating,wheat [7]; [24],80
same,"Plant response rating, Wheat",wheat [7]; [25],30
same,"Plant response rating, Foxtail, Green",green foxtail [8]; [26],80
same,"Plant response rating, Foxtail, Green",green foxtail [8]; [27],50
same,Blackgrass plant response rating,blackgrass [9]; [24],100
same,"Plant response rating, Blackgrass",blackgrass [9]; [25],80
same,"Oat, Wild plant response rating","oat, wild [10]; [24]",90
same,"Plant response rating, Oat, Wild","oat, wild [10]; [25]",90
same,Barnyardgrass plant response rating,barnyardgrass [11]; [24],100
same,"Plant response rating, Barnyardgrass",barnyardgrass [11]; [25],100
same,"Plant response rating, Oat, Wild","oat, wild [12]; [26]",90
same,"Plant response rating, Oat, Wild","oat, wild [12]; [27]",60
same,"Plant response rating, Galium",galium; [26],100
same,"Plant response rating, Galium",galium; [27],100
same,Soybean plant response rating,soybean [13]; [24],100
same,"Plant response rating, Soybean",soybean [13]; [25],80
same,Ragweed plant response rating,ragweed [14]; [24],100
same,"Plant response rating, Ragweed",ragweed [14]; [25],0
same,"Plant response rating, Kochia",kochia [15]; [26],80
same,"Plant response rating, Kochia",kochia [15]; [27],50
same,"Pigweed, Palmer plant response rating","pigweed, palmer [16]; [24]",100
same,"Plant response rating, Pigweed, Palmer","pigweed, palmer [16]; [25]",90
same,"Plant response rating, Barnyardgrass",barnyardgrass [17]; [26],90
same,"Plant response rating, Barnyardgrass",barnyardgrass [17]; [27],30
same,"Plant response rating, Wheat",wheat [18]; [26],90
same,"Plant response rating, Wheat",wheat [18]; [27],30
same,"Plant response rating, Corn",corn [19]; [26],80
same,"Plant response rating, Corn",corn [19]; [27],40
same,Kochia plant response rating,kochia [20]; [24],100
same,"Plant response rating, Kochia",kochia [20]; [25],100
same,"Plant response rating, Horseweed",horseweed; [26],90
same,"Plant response rating, Horseweed",horseweed; [27],70
same,"Plant response rating, Barnyardgrass (Flood)",barnyardgrass [21],15
same,"Foxtail, Green plant response rating",green foxtail [22]; [24],100
same,"Plant response rating, Foxtail, Green",green foxtail [22]; [25],100
same,"Plant response rating, Ducksalad (Flood)",ducksalad,60
same,"Plant response rating, Ragweed",ragweed [23]; [26],80
same,"Plant response rating, Ragweed",ragweed [23]; [27],60
Cc1c(F)cc(-n2cnc(C(C)C)n2)cc1C(=O)N1C[C@H](C)Oc2c(Cl)cccc21 [Compound 151],"Plant response rating, Corn",corn [1]; [28],50
same,Corn plant response rating,corn [1]; [29],20
same,"Plant response rating, Blackgrass",blackgrass [2]; [30],80
same,"Plant response rating, Blackgrass",blackgrass [2]; [31],80
same,"Plant response rating, Soybean",soybean [3]; [30],100
same,"Plant response rating, Soybean",soybean [3]; [31],100
same,"Plant response rating, Ryegrass, Italian","ryegrass, Italian [4]; [28]",90
same,"Ryegrass, Italian plant response rating","ryegrass, Italian [4]; [29]",80
same,"Plant response rating, Rice (Flood)",rice,45
same,"Plant response rating, Pigweed, Palmer","pigweed, palmer [5]; [30]",90
same,"Plant response rating, Pigweed, Palmer","pigweed, palmer [5]; [31]",100
same,"Plant response rating, Sedge, Umbrella (Flood)","sedge, umbrella",75
same,"Plant response rating, Ryegrass, Italian","ryegrass, Italian [6]; [30]",60
same,"Plant response rating, Ryegrass, Italian","ryegrass, Italian [6]; [31]",80
same,"Plant response rating, Wheat",wheat [7]; [28],80
same,Wheat plant response rating,wheat [7]; [29],80
same,"Plant response rating, Foxtail, Green",green foxtail [8]; [30],80
same,"Plant response rating, Foxtail, Green",green foxtail [8]; [31],90
same,"Plant response rating, Blackgrass",blackgrass [9]; [28],90
same,Blackgrass plant response rating,blackgrass [9]; [29],50
same,"Plant response rating, Oat, Wild","oat, wild [10]; [28]",90
same,"Oat, Wild plant response rating","oat, wild [10]; [29]",30
same,Barnyardgrass plant response rating,"barnyardgrass [11]; 125 g ai/ha, 0 to 100 scale (0 no effect, 100 complete control)",90
same,"Plant response rating, Barnyardgrass",barnyardgrass [11]; [28],100
same,"Plant response rating, Oat, Wild","oat, wild [12]; [30]",20
same,"Plant response rating, Oat, Wild","oat, wild [12]; [31]",50
same,"Plant response rating, Galium",galium; [30],100
same,"Plant response rating, Galium",galium; [31],100
same,"Plant response rating, Soybean",soybean [13]; [28],90
same,Soybean plant response rating,soybean [13]; [29],50
same,"Plant response rating, Ragweed",ragweed [14]; [28],80
same,Ragweed plant response rating,ragweed [14]; [29],30
same,"Plant response rating, Kochia",kochia [15]; [30],90
same,"Plant response rating, Kochia",kochia [15]; [31],100
same,"Plant response rating, Pigweed, Palmer","pigweed, palmer [16]; [28]",100
same,"Pigweed, Palmer plant response rating","pigweed, palmer [16]; [29]",100
same,"Plant response rating, Barnyardgrass",barnyardgrass [17]; [30],70
same,"Plant response rating, Barnyardgrass",barnyardgrass [17]; [31],100
same,"Plant response rating, Wheat",wheat [18]; [30],20
same,"Plant response rating, Wheat",wheat [18]; [31],30
same,"Plant response rating, Corn",corn [19]; [30],60
same,"Plant response rating, Corn",corn [19]; [31],90
same,"Plant response rating, Kochia",kochia [20]; [28],100
same,Kochia plant response rating,kochia [20]; [29],100
same,"Plant response rating, Horseweed",horseweed; [30],40
same,"Plant response rating, Horseweed",horseweed; [31],80
same,"Plant response rating, Barnyardgrass (Flood)",barnyardgrass [21],40
same,"Plant response rating, Foxtail, Green",green foxtail [22]; [28],100
same,"Foxtail, Green plant response rating",green foxtail [22]; [29],100
same,"Plant response rating, Ducksalad (Flood)",ducksalad,50
same,"Plant response rating, Ragweed",ragweed [23]; [30],70
same,"Plant response rating, Ragweed",ragweed [23]; [31],90
